{"source": "patent US10376520B2", "about": "“Methods for the treatment of cardiovascular disorders” (Galapagos NV, priority 2015, dated 2019)", "type_in_all_cases": "in vivo, human", "key": {"RA patients [1]": {"tested_on": "RA patients", "assay": "Total cholesterol determination, Study 4 (4 weeks study in RA patients with inadequate response to methotrexate)", "settings": "for [Total cholesterol] levels: Study 4", "text": "Randomized, double-blind, placebo-controlled, multicenter, phase II study of Compound 1 (dosed as a [Compound 1:HCl:3H2O]) to compare four dose regimens versus placebo, in combination with methotrexate, administered for 4 weeks in the treatment of subjects with active rheumatoid arthritis who have an inadequate response to methotrexate alone.\n(§1) Randomized double-blind, placebo-controlled add on study in subjects with active RA who have an inadequate response to MTX monotherapy, in combination with methotrexate, administered for 4 weeks in the treatment of subjects with active rheumatoid arthritis who have an inadequate response to methotrexate alone.\n90 subjects randomized to one of 4 dose regimens of Compound 1 (dosed as a [Compound 1:HCl:3H2O]) or placebo, on top of their stable dose of MTX. Thus, each of the 4 different doses of Compound 1 (dosed as a [Compound 1:HCl:3H2O]) and placebo groups has 18 subjects.\n(§2) Compound 1 (dosed as a [Compound 1:HCl:3H2O]) capsules administered orally in 30 mg, 75 mg, 150 mg, or 300 mg doses per day for 4 weeks.\nThis method is based on the determination of Δ^4 cholestenone after enzymatic cleavage of the cholesterol ester by cholesterol esterase, conversion of cholesterol by cholesterol oxidase, and subsequent measurement by the Trinder reaction of the hydrogen peroxide formed (Allain et al., 1974).\nCholesterol esters are cleaved by the action of cholesterol esterase to yield free cholesterol and fatty acids. Cholesterol oxidase then catalyzes the oxidation of cholesterol to cholest-4-en-3-one and hydrogen peroxide. In the presence of peroxidase, the hydrogen peroxide formed effects the oxidative coupling of phenol and 4-aminophenazone to form a red quinone-imine dye. The color intensity of the dye formed is directly proportional to the cholesterol concentration. It is determined by measuring the increase in absorbance.\nHuman serum and plasma samples cholesterol determination was done on a Roche/Hitachi Cobas c 701/702 system which automatically calculate the analyte concentration of each sample."}, "RA patients [2]": {"tested_on": "RA patients", "assay": "Plasma ApoC-II concentration (ELISA), Study 4", "settings": "4 weeks change from baseline", "method": "as §1, §2\nPlasma ApoC-II and ApoC-III concentrations are determined using commercial available ELISA kits from Abnova (9th Floor, No. 108, Jhouzih St., Neihu District. Taipei City, 114, Taiwan) according to manufacturer's instruction. apoC2: catalogue number KA0464, lot number used: 08871403. apoC3: catalogue number KA0465, lot number used: 02961525."}, "RA patients [3]": {"tested_on": "RA patients", "assay": "[HDL] cholesterol level (Selectra autoanalyzer), Study 4", "settings": "for HDL level, 4 weeks CFB: 4 weeks change from baseline", "method": "as §1, §2\nTriglycerides, [HDL] cholesterol, and plasma cholesterol were measured on the Selectra autoanalyzer (Sopachem BV, 44-RI Straat 33, 4051 AP Ochten, The Netherlands). All assays were commercially available from DiaSys Diagnostic Systems GmbH, Alte Strasse 9, 65558 Holzheim, Germany."}, "[4]": {"tested_on": "healthy volunteers, and patients suffering from inflammatory diseases", "assay": "Lipid profile after oral administration of Compound 1 in humans (summary over the studies)", "method": "When Compound 1 was administered orally in humans, an unexpected change in the lipid profile was observed.\nIn contrast, whereas Compound 1 raised the low [total cholesterol] levels, an unexpected disproportionate rise in blood of [HDL] vs [LDL] was observed. In particular, [HDL] levels of 5-23% compared to initial levels were seen. Moreover, this rise in [HDL] was substantially higher than the corresponding increases in [LDL] levels. In particular between 1.1 and 4 fold higher increases in [HDL] vs. [LDL] were seen.\nTypically, in a recent treatment study with Tofacitinib, a JAK inhibitor for 6 weeks at a dose of 10 mg bid in RA patient, the atherogenic index was unchanged before and after treatment at about 3.5 (Charles-Schoeman et al., 2015) thus leaving the patient at an increased cardiovascular risk before and after treatment.\nFurthermore, this effect was sustained over at least 12 weeks, and at least 24 weeks and were observed over a dose range of 50-200 mg administered either twice daily (b.i.d) or once a day (q.d.).\nAdditionally, this effect was seen both in healthy volunteers, and patients suffering from inflammatory diseases (for example RA and Crohn's disease)."}}, "data": [{"compound": "O=C(Nc1nc2cccc(-c3ccc(CN4CCS(=O)(=O)CC4)cc3)n2n1)C1CC1", "note": "[Compound 1, cyclopropanecarboxylic acid {5-[4-(1,1-dioxo-thiomorpholin-4-ylmethyl)-phenyl]-[1,2,4]triazolo[1,5-a]pyridin-2yl}-amide]", "values": [{"measurement": "[Total cholesterol] % Mean % variation vs baseline after 4 weeks", "setting": "RA patients [1]; 30 mg qd", "result": 6, "unit": "%"}, {"measurement": "[Total cholesterol] % Mean % variation vs baseline after 4 weeks", "setting": "RA patients [1]; 75 mg qd", "result": 5, "unit": "%"}, {"measurement": "[Total cholesterol] % Mean % variation vs baseline after 4 weeks", "setting": "RA patients [1]; 150 mg qd", "result": 3, "unit": "%"}, {"measurement": "[Total cholesterol] % Mean % variation vs baseline after 4 weeks", "setting": "RA patients [1]; 300 mg qd", "result": 17, "unit": "%"}, {"measurement": "[Total cholesterol] levels", "setting": "RA patients [1]; 30 mg q.d., baseline", "result": 5.19, "unit": "mmol/L"}, {"measurement": "[Total cholesterol] levels", "setting": "RA patients [1]; 30 mg q.d., week 1", "result": 5.31, "unit": "mmol/L"}, {"measurement": "[Total cholesterol] levels", "setting": "RA patients [1]; 30 mg q.d., week 2", "result": 5.25, "unit": "mmol/L"}, {"measurement": "[Total cholesterol] levels", "setting": "RA patients [1]; 30 mg q.d., week 3", "result": 5.32, "unit": "mmol/L"}, {"measurement": "[Total cholesterol] levels", "setting": "RA patients [1]; 30 mg q.d., week 4", "result": 5.50, "unit": "mmol/L"}, {"measurement": "[Total cholesterol] levels", "setting": "RA patients [1]; 75 mg q.d., baseline", "result": 4.99, "unit": "mmol/L"}, {"measurement": "[Total cholesterol] levels", "setting": "RA patients [1]; 75 mg q.d., week 1", "result": 5.04, "unit": "mmol/L"}, {"measurement": "[Total cholesterol] levels", "setting": "RA patients [1]; 75 mg q.d., week 2", "result": 5.07, "unit": "mmol/L"}, {"measurement": "[Total cholesterol] levels", "setting": "RA patients [1]; 75 mg q.d., week 3", "result": 5.08, "unit": "mmol/L"}, {"measurement": "[Total cholesterol] levels", "setting": "RA patients [1]; 75 mg q.d., week 4", "result": 5.18, "unit": "mmol/L"}, {"measurement": "[Total cholesterol] levels", "setting": "RA patients [1]; 150 mg q.d., baseline", "result": 4.77, "unit": "mmol/L"}, {"measurement": "[Total cholesterol] levels", "setting": "RA patients [1]; 150 mg q.d., week 1", "result": 4.94, "unit": "mmol/L"}, {"measurement": "[Total cholesterol] levels", "setting": "RA patients [1]; 150 mg q.d., week 2", "result": 4.85, "unit": "mmol/L"}, {"measurement": "[Total cholesterol] levels", "setting": "RA patients [1]; 150 mg q.d., week 3", "result": 4.89, "unit": "mmol/L"}, {"measurement": "[Total cholesterol] levels", "setting": "RA patients [1]; 150 mg q.d., week 4", "result": 4.96, "unit": "mmol/L"}, {"measurement": "[Total cholesterol] levels", "setting": "RA patients [1]; 300 mg q.d., baseline", "result": 4.56, "unit": "mmol/L"}, {"measurement": "[Total cholesterol] levels", "setting": "RA patients [1]; 300 mg q.d., week 1", "result": 5.13, "unit": "mmol/L"}, {"measurement": "[Total cholesterol] levels", "setting": "RA patients [1]; 300 mg q.d., week 2", "result": 5.21, "unit": "mmol/L"}, {"measurement": "[Total cholesterol] levels", "setting": "RA patients [1]; 300 mg q.d., week 3", "result": 5.23, "unit": "mmol/L"}, {"measurement": "[Total cholesterol] levels", "setting": "RA patients [1]; 300 mg q.d., week 4", "result": 5.33, "unit": "mmol/L"}, {"measurement": "ApoC-II level, 4 weeks CFB", "setting": "RA patients [2]; 30 mg q.d.", "result": 11.2, "unit": "%"}, {"measurement": "ApoC-II level, 4 weeks CFB", "setting": "RA patients [2]; 75 mg q.d.", "result": 23.3, "unit": "%"}, {"measurement": "ApoC-II level, 4 weeks CFB", "setting": "RA patients [2]; 150 mg q.d.", "result": 8.6, "unit": "%"}, {"measurement": "ApoC-II level, 4 weeks CFB", "setting": "RA patients [2]; 300 mg q.d.", "result": 37.0, "unit": "%"}, {"measurement": "HDL level, 4 weeks CFB", "setting": "RA patients [3]; 30 mg q.d.", "result": 6.7, "unit": "%"}, {"measurement": "HDL level, Baseline", "setting": "RA patients [3]; 30 mg q.d.", "result": 0.9, "unit": "mM"}, {"measurement": "HDL level, week 4", "setting": "RA patients [3]; 30 mg q.d.", "result": 1, "unit": "mM"}, {"measurement": "HDL level, 4 weeks CFB", "setting": "RA patients [3]; 75 mg q.d.", "result": 13.7, "unit": "%"}, {"measurement": "HDL level, Baseline", "setting": "RA patients [3]; 75 mg q.d.", "result": 1, "unit": "mM"}, {"measurement": "HDL level, week 4", "setting": "RA patients [3]; 75 mg q.d.", "result": 1.1, "unit": "mM"}, {"measurement": "HDL level, 4 weeks CFB", "setting": "RA patients [3]; 150 mg q.d.", "result": 10.7, "unit": "%"}, {"measurement": "HDL level, Baseline", "setting": "RA patients [3]; 150 mg q.d.", "result": 1, "unit": "mM"}, {"measurement": "HDL level, week 4", "setting": "RA patients [3]; 150 mg q.d.", "result": 1.1, "unit": "mM"}, {"measurement": "HDL level, 4 weeks CFB", "setting": "RA patients [3]; 300 mg q.d.", "result": 46.0, "unit": "%"}, {"measurement": "HDL level, Baseline", "setting": "RA patients [3]; 300 mg q.d.", "result": 1, "unit": "mM"}, {"measurement": "HDL level, week 4", "setting": "RA patients [3]; 300 mg q.d.", "result": 1.4, "unit": "mM"}, {"measurement": "rise in [HDL] levels compared to initial levels", "setting": "[4]; administered orally in humans", "result": "5-23%"}, {"measurement": "atherogenic index", "setting": "[4]; doses ranging from 50 mg to 200 mg (once or twice daily) for a period of at least 4 weeks", "result": "drop of the atherogenic index"}]}]}
